{"source": "patent US4443434A", "about": "“Antiulcer agent” (American Home Products Corporation, priority 1982, dated 1984)", "key": {"gastric acid secretion [1]": {"tested_on": "gastric acid secretion", "conditions": "on a molar basis; cited from earlier work"}, "gastric blood flow": {"tested_on": "gastric blood flow", "assay": "gastric blood flow by 86Rb distribution in rats", "type": "in vivo, rat", "conditions": "1 mg/kg/hr i.v. infusion, 86RbCl at 30 min, mean ± S.E.M., 5 animals per group; saline 1.20 ± 0.05", "method": "The effect of the octapeptide on gastric blood flow was established by the following procedure:\nRats weighing 280-350 gms were used. Rats were anesthatized with 50 mg/kg Nembutal and their left jugular veins cannulated. Somatostatin, 1 mg/kg/hr, was infused i.v. in one group of rats while a second group received a saline infusion. In a second experiment the octapeptide of the method of this invention, 1 mg/kg, or saline was injected s.c. Thirty minutes following the start of the experiment 20 μCi/rat of ^86 RbCl was injected i.v. The rats were killed 20 seconds later by injection of 0.5 ml Nembutal. The blood flow to the stomach was determined by counting ^86 Rb in the disected stomachs of the rats."}, "gastric acid secretion [2]": {"tested_on": "gastric acid secretion", "conditions": "dose as high as 2 μm/kg, s.c.; cited from earlier work"}}, "data": [{"molecule": "CSCCC(NC(=O)C(Cc1c[nH]c2ccccc12)NC(=O)CNC(=O)C(Cc1ccc(O)cc1)NC(=O)C(C)NC(=O)C(CCC(=O)O)NC(=O)C(CCC(=O)O)NC(=O)C(CCC(=O)O)NC(=O)[C@H](CCC(=O)O)NC(=O)[C@H](CCC(=O)O)NC(=O)[C@H](CC(C)C)NC(=O)[C@H](Cc1c[nH]c2ccccc12)NC(=O)[C@@H]1CCCN1C(=O)CNC(=O)[C@@H](N)CCC(=O)O)C(=O)NC(CC(=O)O)C(=O)NC(Cc1ccccc1)C(N)=O", "note": "(stereo in doubt) [gastrin]", "values": [{"measurement": "potency as stimulant of gastric acid secretion relative to histamine", "setting": "gastric acid secretion [1]", "value": "1,500 times"}]}, {"molecule": "C[C@H](N)C(=O)NCC(=O)N[C@H]1CSSC[C@@H](C(=O)O)NC(=O)[C@H](CO)NC(=O)[C@H]([C@@H](C)O)NC(=O)[C@H](Cc2ccccc2)NC(=O)[C@H]([C@@H](C)O)NC(=O)[C@H](CCCCN)NC(=O)[C@H](Cc2c[nH]c3ccccc23)NC(=O)[C@H](Cc2ccccc2)NC(=O)[C@H](Cc2ccccc2)NC(=O)[C@H](CC(N)=O)NC(=O)[C@H](CCCCN)NC1=O", "note": "[somatostain, somatostatin]", "values": [{"measurement": "% total 86Rb in stomach", "setting": "gastric blood flow", "value": "1.03 ± 0.05", "unit": "%"}]}, {"molecule": "D-Lys^6 -SRIF", "values": [{"measurement": "effect on gastric acid secretion", "setting": "gastric acid secretion [2]", "value": "no appreciable effect"}]}]}
